In assay [1] the target is T1, SARS‐CoV‐2 Nsp15 (Severe acute respiratory syndrome coronavirus 2, UniProt P0DTD1). As to the kind of experiment: biochemical. The class given is biochemical. As to conditions: for inhibition at 10 µM / Inhibition % +L-Cys 10 µM: L-cysteine buffer; for inhibition at 10 µM: read-out: Inhibition % +L-Cys 10 µM.
The target of assay [2] is T1, SARS‐CoV‐2 Nsp15. In words: biochemical.
Where [3] appears, read: 1 mM L-cysteine buffer, confidence interval in brackets, read-out: IC50 + L‐Cys (μM) (CI in μM).
[4] abbreviates: L-cysteine buffer (Table S1), read-out: IC50 +L-Cys.
The mark [5] stands for this setting: 1 mM DTT buffer, confidence interval in brackets, read-out: IC50 + DTT (μM) (CI in μM).
[6] abbreviates: DTT buffer (Table S1), read-out: IC50 +DTT.
Setting [7] is: hit confirmation, 10 µM, DTT buffer, read-out: HC inhibition % +DTT 10 µM.
Where [8] appears, read: primary screen, 10 µM (Table S1), read-out: PS Inhibition % 10 µM.
Setting [9] is: primary screen, 10 μM compound, 1 mM DTT buffer, normalized to 50 μM Congo red (100%) and DMSO (0%), read-out: PS inhibition % 10 μM (single point measurement).
[10] abbreviates: hit confirmation, 10 µM, DTT buffer.
Where [11] appears, read: primary screen, 10 µM (Table S1).
[12] abbreviates: primary screen, 10 μM compound, 1 mM DTT buffer, normalized to 50 μM Congo red (100%) and DMSO (0%).

Where a name gives a salt, the structure may show the parent alone. Read-outs that look alike come from different tables or passages of the source.

What is called inhibition is the relative decrease from the control value, in per cent. One may read the IC50 as the point on the concentration scale where inhibition reaches its midpoint. As to `COc1cc2c(NC3CCN(CC4CCCCC4)CC3)nc(N3CCCN(C(C)C)CC3)nc2cc1OCCCN1CCCCC1` [UNC0631], the inhibition at 10 µM in assay [1] was 79.3%; in assay [2] (setting [7]) it was 71.4%; in assay [2] (setting [8]) it was 84.8%; in assay [2] (setting [9]) it was 84.8%. Besides, the IC50 in assay [1] (setting [3]) turned out to be 2.5 µM; in assay [1] (setting [4]), 2.54 µM; in assay [2] (setting [5]), 2.2 µM; in assay [2] (setting [6]), 2.21 µM.

For `CCCCCCCCN=c1ccn(CCCCCCCCCCn2ccc(=NCCCCCCCC)cc2)cc1` [Octenidine dihydrochloride], the inhibition at 10 µM in assay [1] was found to be 103%; in assay [2] (setting [7]), 92.4%; in assay [2] (setting [8]) it was 98.6%; in assay [2] (setting [9]) it was 98.6%. Besides, the IC50 in assay [1] (setting [3]) was found to be 4.4 µM; in assay [1] (setting [4]), 4.36 µM; in assay [2] (setting [5]) it was 3.8 µM; in assay [2] (setting [6]) it was 3.76 µM.

As for `O=C1C(Cl)=C(NCCN2CCOCC2)C(=O)c2ncccc21` [NSC‐663284], in assay [1], the “Inhibition % +L-Cys 10 µM” value was 53,53%. For the same molecule, the IC50 was found to be 0.5 µM in assay [2] (setting [5]) and 0.48 µM in assay [2] (setting [6]). Also, the “HC inhibition % +DTT 10 µM” value in assay [2] (setting [10]) is recorded as 82,57%. For the same molecule, the “PS Inhibition % 10 µM” value in assay [2] (setting [11]) is recorded as 85,51%. The “PS inhibition % 10 μM (single point measurement)” value in assay [2] (setting [12]) worked out at 85.5%.

`O=C1c2c(O)ccc(O)c2C(=O)c2c(NCCNCCO)ccc(NCCNCCO)c21` [Mitoxantrone hydrochloride]: the IC50 was determined as 0.5 µM in assay [1] (IC50 + L‐Cys (μM) (CI in μM)), 0.47 µM in assay [1] (IC50 +L-Cys (µM)), 1.5 µM in assay [2] (IC50 + DTT (μM) (CI in μM)) and 1.47 µM in assay [2] (IC50 +DTT (µM)).

Consider `Cc1[nH]c2ccc(F)cc2c1-c1nc2c3cccnc3c3ncccc3c2[nH]1` [APTO‐253], for which the “Inhibition % +L-Cys 10 µM” value in assay [1] is recorded as 48,13%. Moreover, the IC50 stood at 7.8 µM in assay [2] (setting [5]) and 7.75 µM in assay [2] (setting [6]). Also, the “HC inhibition % +DTT 10 µM” value in assay [2] (setting [10]) is 78,02%. The “PS Inhibition % 10 µM” value in assay [2] (setting [11]) is 61,11%. In addition, the “PS inhibition % 10 μM (single point measurement)” value in assay [2] (setting [12]) turned out to be 61.1%.

For the molecule `COc1cc2c(NC3CCN(C(C)C)CC3)nc(C3CCCCC3)nc2cc1OCCCN1CCCC1` [UNC0638], the inhibition at 10 µM in assay [1] was 69.9%; in assay [2] (setting [7]), 69.5%; in assay [2] (setting [8]) it was 56.7%; in assay [2] (setting [9]) it was 56.7%. Moreover, the IC50 in assay [1] (setting [3]) is 4.8 µM; in assay [1] (setting [4]), 4.77 µM; in assay [2] (setting [5]), 2.8 µM; in assay [2] (setting [6]), 2.84 µM.

`COc1cccc2c1C(=O)c1c(O)c3c(c(O)c1C2=O)C[C@@](O)(C(=O)CO)C[C@@H]3O[C@H]1C[C@H](N)[C@@H](O)[C@H](C)O1` [Epirubicin hydrochloride]: the IC50 worked out at 1.5 µM in assay [1] (IC50 + L‐Cys (μM) (CI in μM)), 1.46 µM in assay [1] (IC50 +L-Cys (µM)), 3.4 µM in assay [2] (IC50 + DTT (μM) (CI in μM)) and 3.37 µM in assay [2] (IC50 +DTT (µM)).

For the molecule `NCCNc1ccc(NCCN)c2c1C(=O)c1ccncc1C2=O` [Pixantrone (dimaleate)], the inhibition at 10 µM was 72.8% in assay [1], 77.5% in assay [2] (setting [7]), 82.3% in assay [2] (setting [8]) and 82.3% in assay [2] (setting [9]). Further, the IC50 in assay [1] (setting [3]) was 4.4 µM; in assay [1] (setting [4]) it was 4.37 µM; in assay [2] (setting [5]), 5.2 µM; in assay [2] (setting [6]) it was 5.23 µM.

Turning to `CC(C)Nc1cccnc1N1CCN(C(=O)c2cc3cc(NS(C)(=O)=O)ccc3[nH]2)CC1` [Delavirdine (mesylate)], the inhibition at 10 µM in assay [1] came to 27.2%; in assay [2] (setting [7]), 77.3%; in assay [2] (setting [8]), 80.7%; in assay [2] (setting [9]), 80.7%. Moreover, the “loss of the inhibition potency in L‐cysteine buffer” value in assay [1] (1 mM L‐cysteine buffer compared with DTT buffer) is recorded as “more than 50%”. The 50% inhibitory concentration (IC50) stood at 2.3 µM in assay [2] (setting [5]) and 2.29 µM in assay [2] (setting [6]).

For `COc1cc2c(NC3CCN(C)CC3)nc(N3CCCN(C)CC3)nc2cc1OCCCN(C)C` [UNC0224], the inhibition at 10 µM was found to be 83.2% in assay [1], 73.9% in assay [2] (setting [7]), 70.6% in assay [2] (setting [8]) and 70.6% in assay [2] (setting [9]). The concentration for half-maximal inhibition (IC50) in assay [1] (setting [3]) turned out to be 4 µM; in assay [2] (setting [5]) it was 2.6 µM; in assay [2] (setting [6]), 2.57 µM.

Regarding `COc1cc2c(NC3CCN(C)CC3)nc(N3CCCN(C)CC3)nc2cc1OCCOCCN(C)C` [UNC0321], the inhibition at 10 µM in assay [1] turned out to be 72.9%; in assay [2] (setting [7]) it was 77.6%; in assay [2] (setting [8]) it was 64%; in assay [2] (setting [9]), 63.9%. The concentration for half-maximal inhibition (IC50) in assay [1] (setting [3]) amounted to 3.2 µM; in assay [1] (setting [4]) it was 3.21 µM; in assay [2] (setting [5]), 3.9 µM; in assay [2] (setting [6]), 3.89 µM.

Values taken from paper PMC12079475, “Identification, validation, and characterization of approved and investigational drugs interfering with the SARS‐CoV‐2 endoribonuclease Nsp15” (Protein Science : A Publication of the Protein Society, 2025).
